The text below walks through data of patent publication US20250214969A1, “PROTEIN DEGRADERS AND USES THEREOF” (Kymera Therapeutics, Inc., priority 2022, published 2025).

In test [1] the target is T1, truncated His-MBP-Tev-KLHDC2 (residues 1-363) (Homo sapiens, UniProt Q9Y2U9).
T1 construct: truncated His -MBP-Tev-KLHDC2 (residues 1-363) purified from E. coli; made in house; host or cells: E. coli
T1 sequence (Q9Y2U9 1-363): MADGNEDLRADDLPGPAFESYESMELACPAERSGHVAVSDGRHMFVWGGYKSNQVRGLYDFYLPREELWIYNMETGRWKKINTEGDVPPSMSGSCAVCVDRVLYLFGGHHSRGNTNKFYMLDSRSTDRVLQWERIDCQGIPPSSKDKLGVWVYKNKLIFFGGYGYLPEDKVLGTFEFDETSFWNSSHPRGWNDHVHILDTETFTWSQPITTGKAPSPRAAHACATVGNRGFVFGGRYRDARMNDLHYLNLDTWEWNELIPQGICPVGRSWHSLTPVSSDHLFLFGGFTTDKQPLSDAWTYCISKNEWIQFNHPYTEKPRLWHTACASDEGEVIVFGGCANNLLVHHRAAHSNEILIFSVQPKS
The test is described as follows: KLHDC2 HTRF binding assay. The following applies: 1 nM KLHDC2 (residues 1-363), fluorescein-labeled diglycine peptide probe.

The target in test [2] is T1, truncated His-MBP-Tev-KLHDC2 (residues 1-363). Put plainly: KLHDC2 FP competition binding assay. Conditions: 15 nM KLHDC2 (residues 1-363), 10 nM fluorescein-labeled diglycine peptide probe, read-out: KLHDC2 binding Human FP: average external IC50.
Experimental: FP competition binding assays were performed using 15 nM truncated His -MBP-Tev-KLHDC2 (residues 1-363) purified from E. coli, 10 nM fluorescein-labeled diglycine peptide probe, and test compounds in assay buffer consisting of 50 mM HEPES-Na pH 7.5, 100 mM NaCl, 2 mM DTT, 0.005% Tween-20 with a final volume of 20 uL. Compound stocks were dissolved at 10 mM in 100% DMSO and 11 point titration with 3 fold serial dilution was performed in black, flat bottom 384 well microplates. Plates were incubated at room temperature for 30 minutes. Plates were centrifuged at 1000 rpm for 1 min, data were collected using an Envision plate reader in fluorescence polarization mode with excitation filter FITC FP at 480 nm, emission filter FITC FP P-pol at 535 nm and FITC FP S-pol at 535 nm. FP signal was calculated using the equation (mP=1000*(S-G*P)/(S+G*P), G-factor=1.0) and % Inhibition was calculated using no-protein controls for 100% inhibition and DMSO only reactions for 0l % inhibition (yes).

Regarding `CS(=O)(=O)c1ccc(-c2cccc(C(=O)Nc3ccc(=O)n(CC(=O)O)c3)c2)cc1` [I-192], the IC50 in test [1] and in test [2] was more than 5 µM each time.

With `CNC(=O)c1ccc(-c2cccc(C(=O)Nc3ccc(=O)n(CC(=O)O)c3)c2)cc1` [I-193], the half-inhibitory concentration (IC50) in test [1] and in test [2] was more than 5 µM each time.

Consider `CS(=O)(=O)c1cccc(-c2cccc(C(=O)Nc3ccc(=O)n(CC(=O)O)c3)c2)c1` [I-194], for which the IC50 in test [1] and in test [2] was more than 5 µM throughout.

Regarding `CNC(=O)c1cccc(-c2cccc(C(=O)Nc3ccc(=O)n(CC(=O)O)c3)c2)c1` [I-195], the IC50 in test [1] and in test [2] was more than 5 µM each time.

Turning to `O=C(O)Cn1cc(NC(=O)c2ccc(-c3ccccc3Cl)cc2)ccc1=O` [I-197], the IC50 in test [1] and in test [2] was more than 5 µM throughout.

For the molecule `O=C(O)Cn1cc(NC(=O)c2ccc(-c3cccnc3)cc2)ccc1=O` [I-198], the IC50 was 0.5 to 5 µM in test [1] and more than 5 µM in test [2].

For `O=C(O)Cn1cc(NC(=O)c2cccc(-c3ccc(C(F)(F)F)cc3)c2)ccc1=O` [I-199], the IC50 in test [1] and in test [2] was more than 5 µM throughout.

`O=C(O)Cn1cc(NC(=O)c2cccc(-c3cccc(C(F)(F)F)c3)c2)ccc1=O` [I-200, 2-(2-oxo-5-(3′-(trifluoromethyl)-[1,1′-biphenyl]-3-carboxamido)pyridin-1 (2H)-yl) acetic acid]: the IC50 in test [1] and in test [2] was more than 5 µM each time.

On to `O=C(O)Cn1cc(NC(=O)c2cccc(-c3cncnc3)c2)ccc1=O` [I-201], for which the IC50 in test [1] and in test [2] was 0.5 to 5 µM throughout.

On to `Cc1ccc(C(=O)Nc2ccc(=O)n(CC(=O)O)c2)cc1-c1cccnc1` [I-202], for which the IC50 was 0.05 to 0.5 µM in test [1] and 0.5 to 5 µM in test [2].

Take `COc1cc(-c2ccccc2)ccc1C(=O)Nc1ccc(=O)n(CC(=O)O)c1` [I-203]: the IC50 in test [1] and in test [2] was 0.5 to 5 µM throughout.

For the molecule `COc1cc(-c2cccnc2)ccc1C(=O)Nc1ccc(=O)n(CC(=O)O)c1` [I-204], the IC50 was 0.5 to 5 µM in test [1] and more than 5 µM in test [2].

Regarding `O=C(O)Cn1cc(NC(=O)c2ccc(-c3cccnc3)s2)ccc1=O` [I-205], the IC50 in test [1] and in test [2] was more than 5 µM throughout.

With `O=C(O)CN1CC(NC(=O)c2cccc(-c3ccccc3)c2)CCC1=O` (centres unmarked) [I-206], the IC50 in test [1] and in test [2] was more than 5 µM throughout.

For `CSCCC(NC(=O)c1ccccc1C)C(=O)Nc1ccc(=O)n(CC(=O)O)c1` (centres unmarked) [I-208], the IC50 in test [1] and in test [2] was more than 5 µM throughout.

Take `O=C(O)Cn1cc(NC(=O)c2cccc(-c3ccccn3)c2)ccc1=O` [I-209]: the IC50 in test [1] and in test [2] was more than 5 µM each time.

`COc1ccc(/C=C/CC(=O)Nc2ccc(=O)n(CC(=O)O)c2)cc1` [I-210]: the IC50 in test [1] and in test [2] was more than 5 µM throughout.

Consider `O=C(O)Cn1cc(NC(=O)c2ccc3ccccc3c2)ccc1=O` [I-211], for which the IC50 is 0.5 to 5 µM in test [1] and more than 5 µM in test [2].

On to `O=C(O)Cn1cc(NC(=O)c2ccc(-c3ccccc3)cc2)ccc1=O` [I-212], for which the IC50 was 0.5 to 5 µM in test [1] and more than 5 µM in test [2].

As to `O=C(O)C1CC(=O)N(C2CCSc3ccccc32)C1` (centres unmarked) [I-213], the IC50 in test [1] and in test [2] was more than 5 µM each time.

As to `O=C(O)Cn1c(=O)oc2cc([N+](=O)[O-])ccc21` [I-214], the IC50 in test [1] and in test [2] was more than 5 µM each time.

Take `O=C(O)C1CCOc2ccc(Cl)cc21` (centres unmarked) [I-215]: the IC50 in test [1] and in test [2] was more than 5 µM each time.

Consider `O=C(O)C1CC(=O)N(C2CC2)C1` (centres unmarked) [I-216], for which the IC50 in test [1] and in test [2] was more than 5 µM each time.

Regarding `CCN1C(=O)CCC(C(=O)O)C1c1cnn(C)c1` (centres unmarked) [I-217], the IC50 in test [1] and in test [2] was more than 5 µM in each case.

Take `COc1cccc(C2C(C(=O)O)CC(=O)N2C2CC2)c1` (centres unmarked) [I-218]: the IC50 in test [1] and in test [2] was more than 5 µM in each case.

In the case of `CC(NC(=O)CCC(=O)O)C(=O)c1ccccc1` (centres unmarked) [I-219], the IC50 in test [1] and in test [2] was more than 5 µM throughout.

In the case of `O=C(O)C1CC(=O)N(Cc2cccnc2)C1` (centres unmarked) [I-220], the IC50 in test [1] and in test [2] was more than 5 µM in each case.

As to `O=C(O)C1CC(=O)N(Cc2ccc(Cl)cc2)C1` (centres unmarked) [I-221], the IC50 in test [1] and in test [2] was more than 5 µM each time.

Consider `NC(=O)c1ccc(CN2C(=O)CCC2C(=O)O)cc1` (centres unmarked) [I-222], for which the IC50 in test [1] and in test [2] was more than 5 µM throughout.

Turning to `O=C(O)Cc1cnn2ccccc12` [I-223], the IC50 in test [1] and in test [2] was more than 5 µM each time.

With `O=C(O)CN1C(=O)Cc2ccccc21` [I-224], the IC50 in test [1] and in test [2] was more than 5 µM each time.

Regarding `O=C(O)CCC(=O)NCc1nc2ccccc2s1` [I-225], the IC50 in test [1] and in test [2] was more than 5 µM each time.

Regarding `Cn1cc(N2CC(C(=O)O)CC2=O)cn1` (centres unmarked) [I-226], the IC50 in test [1] and in test [2] was more than 5 µM in each case.

For `CS(=O)(=O)Nc1cccc(CC(=O)O)c1` [I-227], the IC50 in test [1] and in test [2] was more than 5 µM in each case.

Consider `O=C(O)C1CC(=O)N(CCOc2ccccc2Cl)C1` (centres unmarked) [I-228], for which the IC50 in test [1] and in test [2] was more than 5 µM in each case.

On to `O=C(O)CCN1C(=O)CCc2ccccc21` [I-229], for which the IC50 in test [1] and in test [2] was more than 5 µM each time.

As to `O=C(O)C1CC(=O)N(Cc2ccccn2)C1` (centres unmarked) [I-230], the IC50 in test [1] and in test [2] was more than 5 µM each time.

As for `O=C(O)CC1NC(=O)c2ccccc21` (centres unmarked) [I-231], the IC50 in test [1] and in test [2] was more than 5 µM each time.

For `CC(C(=O)O)N1CCCCC1=O` (centres unmarked) [I-232], the IC50 in test [1] and in test [2] was more than 5 µM each time.

In the case of `Cn1ccc(N2CC(C(=O)O)CC2=O)n1` (centres unmarked) [I-233], the IC50 in test [1] and in test [2] was more than 5 µM throughout.

`CC1(C)CCc2c(C(=O)Nc3ccc(=O)n(CC(=O)O)c3)csc2C1` [I-234]: the IC50 in test [1] was 0.5 to 5 µM; in test [2], more than 5 µM.

In the case of `O=C(O)Cn1cc(NC(=O)CC2Cc3ccc(Cl)cc3C2=O)ccc1=O` (centres unmarked) [I-235], the IC50 in test [1] and in test [2] was more than 5 µM each time.

In the case of `O=C(O)Cn1cc(NC(=O)C2(S(=O)(=O)c3ccc(Cl)cc3)CCCC2)ccc1=O` [I-236], the IC50 in test [1] and in test [2] was more than 5 µM in each case.

On to `CCN(CC)c1ccc2cc(C(=O)Nc3ccc(=O)n(CC(=O)O)c3)c(=O)oc2c1` [I-237], for which the IC50 in test [1] lay within 0.05 to 0.5 µM; in test [2], 0.5 to 5 µM.

`CC(C)Cn1ccc2c(C(=O)Nc3ccc(=O)n(CC(=O)O)c3)cccc21` [I-238]: the IC50 in test [1] is 0.05 to 0.5 µM; in test [2] it was more than 5 µM.

For `O=C(O)Cn1cc(NC(=O)CCCc2ccc(C3CC3)cc2)ccc1=O` [I-239], the IC50 in test [1] is 0.5 to 5 µM; in test [2], more than 5 µM.

Take `O=C(O)Cn1cc(NC(=O)c2cccc(C3CCC3)c2)ccc1=O` [I-240]: the IC50 in test [1] and in test [2] was more than 5 µM each time.

As to `CCCCC(=O)Nc1cncc(C(=O)Nc2ccc(=O)n(CC(=O)O)c2)c1` [I-241], the IC50 in test [1] and in test [2] was more than 5 µM throughout.

Turning to `O=C(O)Cn1cc(NC(=O)c2occc2CN2C(=O)Cc3ccccc32)ccc1=O` [I-242], the IC50 in test [1] was 0.5 to 5 µM; in test [2] it was more than 5 µM.

Regarding `COc1ccc(-c2ccccc2)cc1C(=O)Nc1ccc(=O)n(CC(=O)O)c1` [I-243], the IC50 in test [1] and in test [2] was more than 5 µM each time.

With `O=C(O)Cn1cc(NC(=O)COc2ccc(Oc3ccccc3)cc2)ccc1=O` [I-244], the IC50 in test [1] and in test [2] was more than 5 µM throughout.

With `O=C(O)Cn1cc(NC(=O)C2CCCc3cc(O)ccc32)ccc1=O` (centres unmarked) [I-245], the IC50 in test [1] and in test [2] was more than 5 µM in each case.

Consider `Cc1nn(-c2ccc(F)cc2F)c(C)c1CC(=O)Nc1ccc(=O)n(CC(=O)O)c1` [I-246], for which the IC50 in test [1] and in test [2] was more than 5 µM each time.

Turning to `O=C(O)Cn1cc(NC(=O)c2nccc3c(Cl)cccc23)ccc1=O` [I-248], the IC50 is 0.5 to 5 µM in test [1] and more than 5 µM in test [2].

Turning to `O=C(O)Cn1cc(NC(=O)c2ccc(-c3ccccc3)s2)ccc1=O` [I-249], the values for the IC50 in test [1] and in test [2] were 0.5 to 5 µM and more than 5 µM, respectively.

With `O=C(O)Cn1cc(NC(=O)COc2cccnc2)ccc1=O` [I-250], the IC50 in test [1] and in test [2] was more than 5 µM each time.

On to `O=C(O)Cn1cc(NC(=O)COc2cccc3cnccc23)ccc1=O` [I-251], for which the IC50 in test [1] and in test [2] was more than 5 µM throughout.

In the case of `O=C(O)Cn1cc(NC(=O)COc2cccc(C(F)(F)F)c2)ccc1=O` [I-252], the IC50 in test [1] and in test [2] was more than 5 µM in each case.

In the case of `CCc1ccc(C(=O)CCC(=O)Nc2ccc(=O)n(CC(=O)O)c2)cc1` [I-253], the IC50 in test [1] and in test [2] was more than 5 µM each time.

For the molecule `Cc1onc(-c2ccc(F)cc2)c1C(=O)Nc1ccc(=O)n(CC(=O)O)c1` [I-254], the IC50 in test [1] and in test [2] was more than 5 µM throughout.

For `O=C(O)Cn1cc(NC(=O)c2ccc(-c3ccccc3Cl)o2)ccc1=O` [I-255], the IC50 in test [1] and in test [2] was more than 5 µM throughout.
